PMC11591356, “Immunomodulatory Effects of the Tobacco Defensin NaD1” (Antibiotics, 2024)
Ends that are not written are not given here.

Assays:
primary monocytes = assay: Multiplex xMAP assessment of cytokine production by primary monocytes; assay type: cell-based, human; conditions: monocytes + 2 μM NaD1, 24 h
Excerpt: Peripheral blood mononuclear cells (PBMCs) from healthy donors were purchased from American Type Culture Collection (ATCC PCS-800-011). Primary monocytes were isolated from PBMCs by adherence to the plastic surface. For that, PBMCs were thawed, resuspended in RPMI-1640 culture medium (Corning, Corning, NY, USA) without serum at a concentration of 2 × 10^6 cells/mL, seeded into the wells of a 24-well plate and placed in a humidified CO2-intubator (CellXpert C170i, Eppendorf, Hamburg, Germany) for 1 h. After that, non-adherent cells were removed from the wells and attached monocytes were thoroughly washed with PBS and cultured in a CO2-intubator in complete RPMI-1640 containing 10% human serum (HS Type AB, Capricorn Scientific, Ebsdorfergrund, Germany) and 1×antibiotic-antimycotic (1×AA) solution (Sigma, St. Louis, MO, USA).
For the study of the immunomodulatory properties of NaD1, monocytes and immature dendritic cells (moDC) were seeded into the wells of a 24-well plate at densities of 4 × 10^5 and 1.3 × 10^5 cells per well, respectively, in complete RPMI-1640 with 10% HS and AA solution. Then, 24 h later, the culture medium was replaced by a fresh one either with 2 μM NaD1 for stimulation of the cells or without if for the control wells. The cultures were kept in a humidified CO2-intubator for 24 h and then the samples of the culture media were taken and frozen.
The absolute levels of 48 cytokines, chemokines and growth factors were determined at a protein level by multiplex xMAP technology (Luminex, Austin, TX, USA). For this, a MILLIPLEX Human Panel A kit (HCYTA-60K-PX48, Merck, Darmstadt, Germany) was used and the following 48 analytes were evaluated in two biological replications: sCD40L, EGF, CCL11/Eotaxin-1, FGF-basic/FGF-2, Flt-3 ligand, CX3CL1/Fractalkine, G-CSF, GM-CSF, GROα, IFNα2, IFN-γ, IL-1α, IL-1β, IL-1RA, IL-2, IL-3, IL-4, IL-5, IL-6, IL-7, CXCL8/IL-8, IL-9, IL-10, IL-12(p40), IL-12(p70), IL-13, IL-15, IL-17A/CTLA8, IL-17E/IL-25, IL-17F, IL-18, IL-22, IL-27, CXCL10/IP-10, CCL2/MCP-1, CCL7/MCP-3, M-CSF, CCL22/MDC, CXCL9/MIG, CCL3/MIP-1α, CCL4/MIP-1β, PDGF-AA, PDGF-AB/BB, CCL5/RANTES, TGF-α, TNF-α, TNF-β and VEGF-A. The fluorescent data were obtained on a MAGPIX system (Merck) operated with xPONENT 4.2 software (Merck). Final analysis was performed in MILLIPLEX Analyst v5.1 software (Merck).

[1] = test system: human smooth muscles (CASMC); parameters: method as in PMID 28179997; conditions: read-out: IC50, MTT cell viability assay; cited from earlier work

NaD1: Recombinant tobacco floral defensin NaD1 (UNIPROT Q8GTM0), obtained by heterologous expression in E. coli; FITC-labeled in the permeability assay (RECKTESNTFPGICITKPPCRKACISEKFTDGHCSKILRRCLCTKPC; cysteine pairing not given here; also: FITC label; UniProt Q8GTM0 26-72, looked up)
IL-2 absolute level (primary monocytes; control 0.36): 0.51 pg/mL | TGF-a absolute level (primary monocytes; control 0.73): 0.73 pg/mL | IFNg absolute level (primary monocytes; control 0.81): 1.13 pg/mL | IL-5 absolute level (primary monocytes; control 0.87): <0.33↓ pg/ml | IL-4 absolute level (primary monocytes; control 1.25): 1.44 pg/mL | IL-18 absolute level (primary monocytes; control 1.81): 2.95 pg/mL | TNFb absolute level (primary monocytes; control 1.89): 1.49 pg/mL | IL-12 (p40) absolute level (primary monocytes; control 2.8): 2.8 pg/mL | IL-15 absolute level (primary monocytes; control 4.96): 4.19 pg/mL | IL-9 absolute level (primary monocytes; control 5.17): 3.78 pg/mL | IL-1a absolute level (primary monocytes; control 5.33): 7.2 pg/mL | IL-10 absolute level (primary monocytes; control 6.18): 6.66 pg/mL | G-CSF absolute level (primary monocytes; control 10.38): 6.59 pg/mL | IL-13 absolute level (primary monocytes; control 10.99): 5.29 pg/mL | IL-1b absolute level (primary monocytes; control 12.11): 12.11 pg/mL | EGF absolute level (primary monocytes; control 12.18): 14.11 pg/mL | IFNa2 absolute level (primary monocytes; control 13.22): 18.46 pg/mL | IL-6 absolute level (primary monocytes; control 27.82): 26.88 pg/mL | MIP-1a absolute level (primary monocytes; control 29.35): 27.88 pg/mL | MIP-1b absolute level (primary monocytes; control 29.57): 34.19 pg/mL | PDGF-AA absolute level (primary monocytes; control 35.56): 43.29 pg/mL | Fractalkine absolute level (primary monocytes; control 41.58): 32.26 pg/mL | FGF-2 absolute level (primary monocytes; control 45.68): 71.22 pg/mL | VEGFa absolute level (primary monocytes; control 54.1): 52.47 pg/mL | TNFa absolute level (primary monocytes; control 77.73): 79.94 pg/mL | MCP-1 absolute level (primary monocytes; control 82.06): 75.95 pg/mL | MCP-3 absolute level (primary monocytes; control 120.38): 119.63 pg/mL | IL-27 absolute level (primary monocytes; control 121.25): 94.48 pg/mL | RANTES absolute level (primary monocytes; control 184.29): 402.83 pg/mL | IL-1RA absolute level (primary monocytes; control 204.3): 204.3 pg/mL | IP-10 absolute level (primary monocytes; control 290.24): 390.23 pg/mL | GROa absolute level (primary monocytes; control 342.86): 261.06 pg/mL | MDC absolute level (primary monocytes; control 879.89): 759.82 pg/mL | PDGF-AB/BB absolute level (primary monocytes; control 984.71): 1457 pg/mL | MIG absolute level (primary monocytes; control 1021): 1301 pg/mL | IL-8 absolute level (primary monocytes; control 9181): 6023 pg/mL | IL-7 absolute level (primary monocytes; control <0.32): <0.32↓ pg/ml | FLT-3L absolute level (primary monocytes; control <0.61): 0.69 pg/mL | IL-3 absolute level (primary monocytes; control <0.77): <0.77↓ pg/ml | IL-17A absolute level (primary monocytes; control <1.00): <1.00↓ pg/ml | GM-CSF absolute level (primary monocytes; control <1.30): <1.30↓ pg/ml | IL-12 (p70) absolute level (primary monocytes; control <1.79): <1.79↓ pg/ml | Eotaxin absolute level (primary monocytes; control <3.80): <3.80↓ pg/ml | IL-22 absolute level (primary monocytes; control <9.00): <9.00↓ pg/ml | IL-17F absolute level (primary monocytes; control <16.98): <16.98↓ pg/ml | M-GSF absolute level (primary monocytes; control <23.97): <23.97↓ pg/ml | IL-17E/IL-25 absolute level (primary monocytes; control <25.82): <25.82↓ pg/ml | sCD40L absolute level (primary monocytes; two biological replications, untreated control 151.36): 151.36 pg/mL | IC50 [1]: ~10 µM
